Measurements: US9180107B2 (NANOPHARMACEUTICALS LLC, priority 2009, dated 2015)
Read-outs that look alike come from different tables or passages of the source. Marks after values point to notes of the source that are not given here.

Columns and labels:
[1] = tested on: Human glioblastoma U87MG cells; assay: Anti-proliferation (total cell counts) in bellows cell culture system with pharmacodynamic modeling; type: cell-based; settings: for decrease in cell counts compared with untreated control cells: 7-d treatment; for IC50: Homo sapiens, U-87 MG, nano-tetrac IC50 are hypothetical concentrations assuming all bound tetrac is available
Description: (§1) Each cell culture system is a compressible (bellows) 500 mL bottle which contains cell culture medium and specially-treated polymer flakes to which cells spontaneously attach and grow. Through moving bellows and porous membranes, the level of the medium in the bottle changes periodically. Consequently, the cells are alternately submerged in the culture medium, then exposed to 5% CO2/95% air which creates a dynamic interface between air and medium on the cell surface that maximizes nutrient uptake and oxygen transfer. The system provides a low shear, high aeration and foam-free culture environment. Proprietary treatment of the surfaces of the flakes enables seating and harvesting of cells and secreted proteins are readily isolated from the perfusate.
(§2) In a non-perfusion bellows cell culture system that was also used, the medium in each bottle was replaced by fresh medium every 24 h. In the perfusion bellows cell culture system, medium was progressively refreshed over 24 h, i.e., one complete change of medium occurred over 24 h.
(§3) In establishing the system, 5×10^7 cells were seeded in perfusion and non-perfusion bellows bottles and incubated overnight at 37° C. After that, flakes were harvested, trypsinized and cells were collected. Cell numbers were counted. The numbers of cells that attached to were 10-15×10^6 per bottle. For experiments, the perfusion bellows cell culture system was run for 2 d prior to starting experiments. The cell numbers at this point were about 30-50×10^6 cells/bottle. Cell cultures were then exposed to 1% FBS-containing medium. Tetrac or nano-tetrac was added to the medium in the reservoir bottle to achieve the final concentrations reported for each experiment.
(§4) The time course of cell counts of the various cancer lines treated with different concentrations of tetrac or nano-tetrac was modeled by utilizing the pooled approach in NONMEM VI (version 6.2). All time points and treatment arms within each experiment were modeled simultaneously. A mechanism-based model (see Bulitta et al., 2009. Antimicrob. Agents Chemother. 53:46-56) was adapted to describe the proliferation of cancer cells and the inhibition of proliferation by tetrac. This model assumes two populations of cells in different phases of the cell cycle: cells that are preparing for replication (phase 1) and cells that are immediately “pre-replication” (phase 2). Cells transition from phase 1 to phase 2 by a first-order growth rate constant, while replication from phase 2 to phase 1 is assumed to be fast (see FIG. 2).
(§5) [formula] [formula] [formula] where C1 is the number of cells in phase 1, C2 the number of cells in phase 2, k21 the first order rate constant for replication (transition from phase 2 to phase 1), and k12 the first-order growth rate constant for transition from phase 1 to phase 2. The total number of cells Ct is the sum of C1 and C2. Rep is the replication efficiency factor which is described by:
(§6) [formula] where Cmax is the maximum number of cells. Without tetrac, the replication efficiency factor approaches 2, which reflects a 100% probability of successful replication. InhR describes the inhibitory effect of tetrac on the probability of successful replication:
(§7) [formula] Where ImaxR is the maximum effect of tetrac on probability of successful replication and IC50R is the tetrac concentration needed to achieve a half-maximal effect. Inhk describes the inhibitory effect of tetrac on the rate of growth:
(§8) [formula] Where Imaxk is the maximum effect of tetrac on rate of growth and IC50k is the tetrac concentration needed to achieve a half-maximal effect. Results

[2] = tested on: monkey kidney epithelial CV-1 cells; assay: Proliferation of non-malignant cells; type: cell-based, African green monkey; settings: 10^−6M daily for 7 days
Description: FIG. 9 is a series of graphs showing the comparison of nano-tetrac and tetrac on cell proliferation in non-malignant cells. CV-1 cells (FIG. 9A) and 293 T cells (FIG. 9B) were treated daily with 10^−6 M tetrac or nano-tetrac. Cells were harvested at the time points indicated. Total cell numbers taken after each treatment were used as an indicator for tetrac- or nano-tetrac-induced anti-proliferation.
In order to confirm that tetrac and nano-tetrac only suppress cell proliferation in cancer cells, tetrac and nano-tetrac were also examined for potential anti-proliferative effects on immortalized non-malignant cells, using monkey kidney epithelial CV-1 cells and human embryonic kidney 293T cells. The cells were treated daily with either 10^−6M tetrac or 10^−6M nano-tetrac for 7 days, then were harvested, counted and examined microscopically.

[3] = tested on: human breast cancer MDA-MB-231 cells (MDA-MB); assay: Anti-proliferation (total cell counts) in bellows cell culture system with pharmacodynamic modeling; type: cell-based; settings: for IC50 / Imaxk (maximum effect on rate of growth) / ImaxR (maximum effect on success of replication): MDA-MB 231
Description: as §1, §2
as §3, with “The numbers of cells that attached to were 10-15×10^6 per bottle.” left out, “The cell numbers at this point were about 30-50×10^6 cells/bottle.” left out
as §4, §5, §6, §7, §8

[4] = U87MG, model parameter estimate
[5] = study 2, rich data from one single study over 19 days

O=C(O)Cc1cc(I)c(Oc2cc(I)c(O)c(I)c2)c(I)c1 [tetrac, Tetraiodothyroacetic acid]
decrease in cell counts compared with untreated control cells ([1]; 10^−7 M): > 28% | decrease in cell counts compared with untreated control cells ([1]; 10^−8 M): more than 15% | IC50 ([1]; U87MG, model parameter estimate, read-out: IC50R (effect on success of replication)): 47400 nM | IC50 ([1]; U87MG, model parameter estimate, read-out: IC50k (effect on rate of growth)): 47 nM | ImaxR (maximum effect on success of replication) [1, 4]: 0.92 | Imaxk (maximum effect on rate of growth) [1, 4]: 0.57 | change in cell numbers and morphology vs untreated control [2]: no significant change | IC50 ([3]; Homo sapiens, 456 h, study 2, rich data from one single study over 19 days, read-out: IC50R (effect on success of replication)): 87 nM | IC50 ([3]; Homo sapiens, 456 h, study 2, rich data from one single study over 19 days, read-out: IC50k (effect on rate of growth)): 5100 nM | inhibition at 0.1 µM ([3]; Homo sapiens, MDA-MB-231, 192 h, read-out: inhibitory effect on cell growth): 38% | IC50 ([3]; Homo sapiens, study 1, sparse sampling, data pooled from two studies, read-out: IC50R (effect on success of replication)): 4400 nM | IC50 ([3]; Homo sapiens, study 1, sparse sampling, data pooled from two studies, read-out: IC50k (effect on rate of growth)): 7.6 nM | Imaxk (maximum effect on rate of growth) ([3]; study 1, sparse sampling, data pooled from two studies): 0.19 | ImaxR (maximum effect on success of replication) ([3]; study 1, Imax at time = 0, decreases with time): 0.53^a | ImaxR (maximum effect on success of replication) [3, 5]: 0.20 | Imaxk (maximum effect on rate of growth) [3, 5]: 0.85
